The source of these data is patent US7166580B2, “Compounds which inhibit leukocyte adhesion mediated by VLA-4” (Elan Pharmaceuticals, Inc., priority 1997, dated 2007).

Molecules are shown by their SMILES. Square brackets hold non-standard residues; d marks the D form. Peptide text beside a SMILES is read from it. * marks the point of attachment. Dip = N[C@H](C(=O)O)C(c1ccccc1)c1ccccc1; Tos = Cc1ccc(S(=O)(=O)*)cc1; OBn = c1ccc(CO*)cc1; Sar = CNCC(=O)O

In general, melting point refers to the temperature, or range, at which the solid turns liquid.

The compound `Cc1ccc(S(=O)(=O)NC(C(=O)N[C@@H](Cc2ccccc2)C(=O)O)c2ccccc2)cc1` (mixture of isomers) [Example 9, N-(Toluene-4-sulfonyl)-D,L-phenylglycyl-L-phenylalanine] showed a melting point of 150 to 152 °C.

`CCOC(=O)[C@H](Cc1ccccc1)NC(=O)C(NS(=O)(=O)c1ccc(C)cc1)c1ccccc1` (mixture of isomers) [Example 22, N-(Toluene-4-sulfonyl)-D,L-phenylglycyl-L-phenylalanine Ethyl Ester] returned a melting point of 145 to 147 °C.

Take `Cc1ccc(S(=O)(=O)NC(C(=O)N[C@@H](Cc2ccccc2)C(=O)OCc2ccccc2)c2ccccc2)cc1` (mixture of isomers) [Example 29, N-(Toluene-4-sulfonyl)-D,L-phenylglycyl-L-phenylalanine Benzyl Ester]: the melting point lay in the range of 148 to 150 °C.

`Cc1ccc(S(=O)(=O)N(C)C(C(=O)N[C@@H](Cc2ccccc2)C(=O)OCc2ccccc2)c2ccccc2)cc1` (mixture of isomers) [Example 30, N-(Toluene-4-sulfonyl)-N-methyl-D,L-phenylglycyl-L-phenylalanine Benzyl Ester] had a melting point of 46 to 49 °C.

The compound `Cc1ccc(S(=O)(=O)NCC(=O)N[C@@H](Cc2ccccc2)C(=O)O)cc1` [Example 3, N-(Toluene-4-sulfonyl)glycyl-L-phenylalanine] (Tos-Gly-Phe-OH) registered a melting point of 157 to 161 °C.

`Cc1ccc(S(=O)(=O)N(C)CC(=O)N[C@@H](Cc2ccccc2)C(=O)O)cc1` [Example 4, N-(Toluene-4-sulfonyl)sarcosyl-L-phenylalanine] (Tos-[Sar]-Phe-OH) returned a melting point of 128 to 130 °C.

Compound `Cc1ccc(S(=O)(=O)N[C@@H](C)C(=O)N[C@@H](Cc2ccccc2)C(=O)O)cc1` [Example 5, N-(Toluene-4-sulfonyl)-L-alanyl-L-phenylalanine] had a melting point of 105 to 108 °C.

As to `COC(=O)c1ccccc1S(=O)(=O)NCC(=O)N[C@@H](Cc1ccccc1)C(=O)O` [Example 6, N-(2-Methoxycarbonylbenzenesulfonyl)-glycyl-L-phenylalanine], the melting point is 140 to 143 °C.

Consider `Cc1ccc(S(=O)(=O)N[C@@H](C)C(=O)N[C@@H](Cc2ccccc2)C(=O)OCc2ccccc2)cc1` [Example 20, N-(Toluene-4-sulfonyl)-L-alanyl-L-phenylalanine Benzyl Ester], for which the melting point was 109 to 110 °C.

`Cc1ccc(S(=O)(=O)N(C)CC(=O)N[C@@H](Cc2ccccc2)C(=O)OCc2ccccc2)cc1` [Example 21, N-(Toluene-4-sulfonyl)sarcosyl-L-phenylalanine Benzyl Ester] (Tos-[Sar]-Phe-OBn): the melting point fell in the range of 80 to 82 °C.

`Cc1ccc(S(=O)(=O)N[C@H](C(=O)N[C@@H](Cc2ccccc2)C(=O)OCc2ccccc2)C(c2ccccc2)c2ccccc2)cc1` [Example 25, N-(Toluene-4-sulfonyl)-L-diphenylalanyl-L-phenylalanine Benzyl Ester] (Tos-[Dip]-Phe-OBn): the melting point lay within 79 to 84 °C.
